Measurements from US11498903B2 (BRISTOL-MYERS SQUIBB COMPANY, priority 2017, dated 2022).
pEC50: −log10 of the molar value. Read-outs that look alike come from different tables or passages of the source.

Biological target: T1, human APJ receptor (Homo sapiens, UniProt P35414)
T1 construct: expressed in transfected cells
T1 sequence (P35414 1-380): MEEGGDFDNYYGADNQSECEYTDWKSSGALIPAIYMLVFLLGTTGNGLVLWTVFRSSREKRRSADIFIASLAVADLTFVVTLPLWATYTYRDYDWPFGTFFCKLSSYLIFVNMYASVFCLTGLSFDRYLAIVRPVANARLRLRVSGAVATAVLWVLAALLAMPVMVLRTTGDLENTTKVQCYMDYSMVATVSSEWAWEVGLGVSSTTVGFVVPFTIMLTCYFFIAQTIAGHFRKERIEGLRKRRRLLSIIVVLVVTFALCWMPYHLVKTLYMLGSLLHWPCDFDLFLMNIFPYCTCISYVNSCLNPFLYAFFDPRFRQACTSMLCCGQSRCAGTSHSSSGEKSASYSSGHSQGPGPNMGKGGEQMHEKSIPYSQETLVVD
Assay: Intracellular cAMP accumulation assay (APJ hcAMP, HTRF)
Format: cell-based
Settings: HEK293 cells stably expressing human APJ receptor
In short: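 HEK293 cells stably expressing human APJ, 5,000/well, incubated 30 min at room temperature with compound plus […] and 2 μM forskolin. cAMP read by HTRF against a cAMP standard curve; EC50 from variable-slope sigmoidal fit, Ymax as % of (Pyr1)apelin-13 inhibition.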

[1] = Table 1, inhibition of forskolin-mediated cAMP production, read-out: APJ hcAMP EC50
[2] = Table 2, read-out: APJ cAMP Human EC50

pEC50 [1]	pEC50 [2]	SMILES
7.00 to 8.00	7.00 to 8.00	O=C(N[C@H](CN1CCOCC1)c1ccccc1)c1ccc(-c2cc(Cl)ccc2-c2nc3ccccc3[nH]2)c(C(=O)O)c1 [Example 5, (S)-2′-(1H-benzo[d]imidazol-2-yl)-5′-chloro-4-((2-morpholino-1-phenylethyl)carbamoyl)-[1,1′-biphenyl]-2-carboxylic acid]
7.00 to 8.00	7.00 to 8.00	CCC[C@@H](NC(=O)c1ccc(-c2cc(Cl)ccc2-c2nc3cc(OC)ccc3[nH]2)c(-c2nc(=O)o[nH]2)c1)c1ccccc1 [Example 8, (R)-5′-chloro-2′-(5-methoxy-1H-benzo[d]imidazol-2-yl)-2-(5-oxo-2,5-dihydro-1,2,4-oxadiazol-3-yl)-N-(1-phenylbutyl)-[1,1′-biphenyl]-4-carboxamide]
> 8.00	> 8.00	CCC[C@@H](NC(=O)c1cc(C(=O)O)c(-c2cc(Cl)ccc2-c2nc3ccccc3[nH]2)cc1C)c1ccccc1 [Example 11, (R)-2′-(1H-benzo[d]imidazol-2-yl)-5′-chloro-5-methyl-4-((1-phenylbutyl)carbamoyl)-[1,1′-biphenyl]-2-carboxylic acid]
> 8.00	> 8.00	COC[C@@H](NC(=O)c1ccc(-c2cc(Cl)ccc2-c2nc3cc(OC)ccc3[nH]2)c(C(=O)O)c1)c1ccccc1 [Example 12, 5′-chloro-4-{[(1S)-2-methoxy-1-phenylethyl]carbamoyl}-2′-(5-methoxy-1H-1,3-benzodiazol-2-yl)-[1,1′ biphenyl]-2-carboxylic acid]
> 8.00	> 8.00	CCC[C@@H](NC(=O)c1ccc(-c2cc(Cl)ccc2-c2nc3cc(C)ccc3[nH]2)c(C(=O)O)c1)c1ccccc1 [Example 14, 5′-chloro-2′-(5-methyl-1H-1,3-benzodiazol-2-yl)-4-{[(1R)-1-phenylbutyl]carbamoyl}-[1,1′-biphenyl]-2-carboxylic acid]
> 8.00	> 8.00	CCC[C@@H](NC(=O)c1ccc(-c2cc(Cl)ccc2-c2nc3cc(C4CC4)ccc3[nH]2)c(C(=O)O)c1)c1ccccc1 [Example 15, 5′-chloro-2′-(5-cyclopropyl-1H-1,3-benzodiazol-2-yl)-4-{[(1R)-1-phenylbutyl]carbamoyl}-[1,1′-biphenyl]-2-carboxylic acid]
> 8.00	> 8.00	CCC[C@@H](NC(=O)c1ccc(-c2cc(Cl)ccc2-c2nc3cc(CC(F)(F)F)ccc3[nH]2)c(C(=O)O)c1)c1ccccc1 [Example 16, 5′-chloro-4-{[(1R)-1-phenylbutyl]carbamoyl}-2′-[5-(2,2,2-trifluoroethyl)-1H-1,3-benzodiazol-2-yl]-[1,1′-biphenyl]-2-carboxylic acid]
> 8.00	> 8.00	CCC[C@@H](NC(=O)c1ccc(-c2cc(Cl)ccc2-c2nc3c(F)cccc3[nH]2)c(C(=O)O)c1)c1ccccc1 [Example 17, 5′-chloro-2′-(4-fluoro-1H-1,3-benzodiazol-2-yl)-4-{[(1R)-1-phenylbutyl]carbamoyl}-[1,1′-biphenyl]-2-carboxylic acid]
> 8.00	> 8.00	CCC[C@@H](NC(=O)c1ccc(-c2cc(Cl)ccc2-c2nc3cc(C(F)(F)F)ccc3[nH]2)c(C(=O)O)c1)c1ccccc1 [Example 18, 5′-chloro-4-{[(1R)-1-phenylbutyl]carbamoyl}-2′-[5-(trifluoromethyl)-1H-1,3-benzodiazol-2-yl]-[1,1′-biphenyl]-2-carboxylic acid]
> 8.00	> 8.00	CCC[C@@H](NC(=O)c1ccc(-c2cc(Cl)ccc2-c2nc3cc(C(C)(C)C)ccc3[nH]2)c(C(=O)O)c1)c1ccccc1 [Example 19, 2′-(5-tert-butyl-1H-1,3-benzodiazol-2-yl)-5′-chloro-4-{[(1R)-1-phenylbutyl]carbamoyl}-[1,1′-biphenyl]-2-carboxylic acid]
> 8.00	> 8.00	CCC[C@@H](NC(=O)c1ccc(-c2cc(Cl)ccc2-c2nc3c(O)cccc3[nH]2)c(C(=O)O)c1)c1ccccc1 [Example 20, 5′-chloro-2′-(4-hydroxy-1H-1,3-benzodiazol-2-yl)-4-{[(1R)-1-phenylbutyl]carbamoyl}-[1,1′-biphenyl]-2-carboxylic acid]
> 8.00	> 8.00	CCC[C@@H](NC(=O)c1ccc(-c2cc(Cl)ccc2-c2nc3cc(C(=O)OC)ccc3[nH]2)c(C(=O)O)c1)c1ccccc1 [Example 21, 5′-chloro-2′-[5-(methoxycarbonyl)-1H-1,3-benzodiazol-2-yl]-4-{[(1R)-1-phenylbutyl]carbamoyl}-[1,1′-biphenyl]-2-carboxylic acid]
7.00 to 8.00	7.00 to 8.00	CCC[C@@H](NC(=O)c1ccc(-c2cc(Cl)ccc2-c2nc3cc4c(cc3[nH]2)OCO4)c(C(=O)O)c1)c1ccccc1 [Example 26, 5′-chloro-2′-{4,6-dioxa-10,12-diazatricyclo[7.3.0.0^3,^7]dodeca-1(9),2,7,10-tetraen-11-yl}-4-{[(1R)-1-phenylbutyl]carbamoyl}-[1,1′-biphenyl]-2-carboxylic acid]
7.00 to 8.00	7.00 to 8.00	CCC[C@@H](NC(=O)c1ccc(-c2cc(Cl)ccc2-c2nc3cc4ccccc4cc3[nH]2)c(C(=O)O)c1)c1ccccc1 [Example 27, 5′-chloro-2′-{1H-naphtho[2,3-d]imidazol-2-yl}-4-{[(1R)-1-phenylbutyl]carbamoyl}-[1,1′-biphenyl]-2-carboxylic acid]

Continued, compound first:

SMILES	pEC50 [1]	pEC50 [2]
CCC[C@@H](NC(=O)c1ccc(-c2cc(Cl)ccc2-c2nc3ccccc3[nH]2)c(C(=O)NC#N)c1)c1ccccc1 [Example 6, (R)-2′-(1H-benzo[d]imidazol-2-yl)-5′-chloro-N2-cyano-N4-(1-phenylbutyl)-[1,1′-biphenyl]-2,4-dicarboxamide]	6.30 to 7.00	6.30 to 7.00
CCC[C@@H](NC(=O)c1ccc(-c2cc(Cl)ccc2-c2nc3ccccc3[nH]2)c(CO)c1)c1ccccc1 [Example 7, (R)-2′-(1H-benzo[d]imidazol-2-yl)-5′-chloro-2-(hydroxymethyl)-N-(1-phenylbutyl)-[1,1′-biphenyl]-4-carboxamide]	7.00 to 8.00	7.00 to 8.00
CCC[C@@H](NC(=O)c1ccc(-c2cc(Cl)ccc2-c2nc3ccccc3[nH]2)c(-c2n[nH]c(=O)o2)c1)c1ccccc1 [Example 9]	7.00 to 8.00	7.00 to 8.00
CCC[C@@H](NC(=O)c1ccc(-c2cc(Cl)ccc2-c2nc3cc(OC)ccc3[nH]2)c(-c2nc(=S)o[nH]2)c1)c1ccccc1 [Example 10, (R)-5′-chloro-2′-(5-methoxy-1H-benzo[d]imidazol-2-yl)-N-(1-phenylbutyl)-2-(5-thioxo-2,5-dihydro-1,2,4-oxadiazol-3-yl)-[1,1′-biphenyl]-4-carboxamide]	6.30 to 7.00	6.30 to 7.00
CCC[C@@H](NC(=O)c1ccc(-c2cc(Cl)ccc2-c2nc3cc(Br)ccc3[nH]2)c(C(=O)O)c1)c1ccccc1 [Example 13, 2′-(5-bromo-1H-1,3-benzodiazol-2-yl)-5′-chloro-4-{[(1R)-1-phenylbutyl]carbamoyl}-[1,1′-biphenyl]-2-carboxylic acid]	> 8.00	> 8.00
CCC[C@@H](NC(=O)c1ccc(-c2cc(Cl)ccc2-c2nc3cc(OC(F)(F)F)ccc3[nH]2)c(C(=O)O)c1)c1ccccc1 [Example 22, 5′-chloro-4-{[(1R)-1-phenylbutyl]carbamoyl}-2′-[5-(trifluoromethoxy)-1H-1,3-benzodiazol-2-yl]-[1,1′-biphenyl]-2-carboxylic acid]	7.00 to 8.00	7.00 to 8.00
CCC[C@@H](NC(=O)c1ccc(-c2cc(Cl)ccc2-c2nc3ncc(C)cc3[nH]2)c(C(=O)O)c1)c1ccccc1 [Example 23, 5′-chloro-2′-{6-methyl-1H-imidazo[4,5-b]pyridin-2-yl}-4-{[(1R)-1-phenylbutyl]carbamoyl}-[1,1′-biphenyl]-2-carboxylic acid]	7.00 to 8.00	7.00 to 8.00
CCC[C@@H](NC(=O)c1ccc(-c2cc(Cl)ccc2-c2nc3ccncc3[nH]2)c(C(=O)O)c1)c1ccccc1 [Example 24, 5′-chloro-2′-{1H-imidazo[4,5-c]pyridin-2-yl}-4-{[(1R)-1-phenylbutyl]carbamoyl}-[1,1′-biphenyl]-2-carboxylic acid]	7.00 to 8.00	7.00 to 8.00
CCC[C@@H](NC(=O)c1ccc(-c2cc(Cl)ccc2-c2nc3c(ccc4ccccc43)[nH]2)c(C(=O)O)c1)c1ccccc1 [Example 25, 5′-chloro-2′-{3H-naphtho[1,2-d]imidazol-2-yl}-4-{[(1R)-1-phenylbutyl]carbamoyl}-[1,1′-biphenyl]-2-carboxylic acid]	7.00 to 8.00	7.00 to 8.00
CCC[C@@H](NC(=O)c1ccc(-c2cc(Cl)ccc2-c2nc3cc(C#N)ccc3[nH]2)c(C(=O)O)c1)c1ccccc1 [Example 28, 5′-chloro-2′-(5-cyano-1H-1,3-benzodiazol-2-yl)-4-{[(1R)-1-phenylbutyl]carbamoyl}-[1,1′-biphenyl]-2-carboxylic acid]	7.00 to 8.00	7.00 to 8.00
CCC[C@@H](NC(=O)c1ccc(-c2cc(Cl)ccc2-c2nc3ncncc3[nH]2)c(C(=O)O)c1)c1ccccc1 [Example 29, 5′-chloro-4-{[(1R)-1-phenylbutyl]carbamoyl}-2′-(7H-purin-8-yl)-[1,1′-biphenyl]-2-carboxylic acid]	7.00 to 8.00	7.00 to 8.00
